Data on two compounds can be found in patent US5053329A, “Process for preparation of novel angiotensin II antagonists” (Merck & Co., Inc., priority 1991, dated 1991).

The target of this experiment is T1, angiotensin II receptor (rabbit aortae membrane preparation) (Oryctolagus cuniculus, UniProt P34976).
T1 sequence (P34976 1-359): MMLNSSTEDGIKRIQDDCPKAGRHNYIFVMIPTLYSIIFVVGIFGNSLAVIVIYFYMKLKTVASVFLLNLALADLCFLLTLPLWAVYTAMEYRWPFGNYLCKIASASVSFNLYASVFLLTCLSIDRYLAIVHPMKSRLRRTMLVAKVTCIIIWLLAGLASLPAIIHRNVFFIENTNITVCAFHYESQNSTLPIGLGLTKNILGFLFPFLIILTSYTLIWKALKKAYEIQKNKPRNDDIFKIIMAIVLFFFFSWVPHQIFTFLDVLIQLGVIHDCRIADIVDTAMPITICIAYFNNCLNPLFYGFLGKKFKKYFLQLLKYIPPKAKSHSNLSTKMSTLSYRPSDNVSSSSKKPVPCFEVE
The experiment in a line: Receptor binding assay using rabbit aortae membrane preparation (displacement of 125I-Sar1 Ile8-angiotensin II). Conditions: result in words. Here is the method:
This assay is also referred to herein as the "IC50 " assay.
RECEPTOR BINDING ASSAY USING RABBIT AORTAE MEMBRANE PREPARATION
Three frozen rabbit aortae (obtained from Pel-Freeze Biologicals) were suspended in 5 mM Tris-0.25M Sucrose, pH 7.4 buffer (50 ml) homogenized, and then centrifuged. The mixture was filtered through a cheesecloth and the supernatant was centrifuged for 30 minutes at 20,000 rpm at 4° C. The pellet thus obtained was resuspended in 30 ml of 50 mM Tris-5 mM MgCl2 buffer containing 0.2% Bovine Serum Albumin and 0.2 mg/ml Bacitration and the suspension was used for 100 assay tubes. Samples tested for screening were done in duplicate. To the membrane preparation (0.25 ml) there was added ^125 I-Sar^1 Ile^8 -angiotensin II [obtained from New England Nuclear] (10 ul; 20,000 cpm) with or without the test sample and the mixture was incubated at 37° C. for 90 minutes. The mixture was then diluted with ice-cold 50 mM Tris-0.9% NaCl, pH 7.4 (4 ml) and filtered through a glass fiber filter (GF/B Whatman 2.4" diameter). The filter was soaked in scintillation cocktail (10 ml) and counted for radioactivity using Packard 2660 Tricarb liquid scintillation counter. […]

As for `CCCc1nc2c(C)c(O)cnc2n1Cc1ccc(-c2ccccc2-c2nnn[nH]2)cc1` [6-HO-oxidation product], the “A II antagonist activity by the IC50 assay” value was “exhibit A II antagonist activity”.
In the case of `CCCc1nc2c(CO)ccnc2n1Cc1ccc(-c2ccccc2-c2nnn[nH]2)cc1` [7-HOCH2 - oxidation product], the “A II antagonist activity by the IC50 assay” value was “exhibit A II antagonist activity”.
